{
  "source": "patent US8003343B2",
  "about": "“Method for determining diamine oxidase” (Sciotec Diagnostic Technologies GmbH, priority 2005, dated 2011)",
  "target": "diamine oxidase (DAO; EC 1.4.3.6) (Homo sapiens, UniProt P19801)",
  "sequence (P19801 20-751, species assumed)": "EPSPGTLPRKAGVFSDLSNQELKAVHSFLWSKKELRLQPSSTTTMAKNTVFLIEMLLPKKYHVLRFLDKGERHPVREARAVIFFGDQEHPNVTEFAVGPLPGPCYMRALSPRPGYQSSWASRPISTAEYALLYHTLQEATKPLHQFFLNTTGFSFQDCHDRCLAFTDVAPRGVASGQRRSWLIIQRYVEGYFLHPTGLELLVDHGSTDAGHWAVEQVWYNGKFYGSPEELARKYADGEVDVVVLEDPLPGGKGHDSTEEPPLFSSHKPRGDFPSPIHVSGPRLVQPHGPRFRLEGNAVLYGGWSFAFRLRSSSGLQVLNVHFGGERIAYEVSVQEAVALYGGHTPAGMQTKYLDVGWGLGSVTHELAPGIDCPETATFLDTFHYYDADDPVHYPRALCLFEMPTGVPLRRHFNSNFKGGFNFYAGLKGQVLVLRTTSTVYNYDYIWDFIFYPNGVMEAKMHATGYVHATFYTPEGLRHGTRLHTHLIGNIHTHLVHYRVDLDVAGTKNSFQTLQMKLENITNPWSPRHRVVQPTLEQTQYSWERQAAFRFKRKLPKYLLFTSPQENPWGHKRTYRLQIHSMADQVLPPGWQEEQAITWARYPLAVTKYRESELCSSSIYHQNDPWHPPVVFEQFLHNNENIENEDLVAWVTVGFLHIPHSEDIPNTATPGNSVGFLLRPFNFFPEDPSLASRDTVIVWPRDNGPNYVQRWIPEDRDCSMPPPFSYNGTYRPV",
  "test": "biochemical",
  "method": "The sample is contacted and mixed with the given amount of diamine preferably dissolved in an aqueous solution. It is, of course, also possible to directly add a given amount of diamine to a defined amount of sample (e.g. in crystal form). […] After having incubated this mixture for a fixed period during which the diamine contained in the aqueous solution is degraded in the presence of DAO as a function of the amount of the latter, the diamine remaining in the mixture is derivatized by 95%, preferably 99%, even more preferred 99.5%, in particular 100%. The incubation conditions must be selected such that the DAO possibly present in the sample is able to convert the present diamine. DAO is an enzyme which converts diamine substrates such as, e.g. histamine, at such reaction rates that the incubation time will preferably last for at least 30 minutes.\nFIG. 3 depicts the relative enzymatic activity of a defined amount of DAO in a sample as a function of the amount of histamine used.",
  "data": [
    {"compound": "NCCc1c[nH]cn1", "note": "[histamine, 1H-imidazole-4-ethylamine]", "values": [
      {"measurement": "inhibition of DAO", "setting": "addition of at least 100 μM histamine", "value": "at least partially inhibited"},
      {"measurement": "inhibition at 500 µM", "setting": "read-out: inhibition of DAO", "value": "~60", "unit": "%"}
    ]}
  ]
}
